Experimental findings from patent US12180226B2, “Spirotricycle RIPK1 inhibitors and methods of uses thereof” (Merck Sharp & Dohme LLC, priority 2021, dated 2024) are described below.

Molecules are shown by their SMILES. Where only a bound is given, the exact number is not on record here.

This experiment deals with RIPK1 (recombinant GST-RIPK1 kinase domain, residues 1-327) (Homo sapiens (Human), UniProt Q13546). Briefly: RIPK1-ADP-Glo Enzymatic Assay. Format: biochemical. The note with it: ADP-Glo; 25 nM GST-RIPK1, 300 μM ATP; assay lower limit ~25 nM; read-out: RIPK1 V0 Ec50. The method, boiled down:
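ADP-Glo luminescence read after 150 min kinase reaction (300 μM ATP, 3 μM dephosphorylated MBP) using 25 nM Sf21-made GST-kinase domain (1-327), preincubated 30 min with compound. HEPES pH 7.3, 1% DMSO; ten-point 1:3 series from 100000 nM, EC50 via four-parameter sigmoidal regression.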
(ADP-Glo first removes unused ATP, then detects ADP through luciferase.)

Sequence of RIPK1 (recombinant GST-RIPK1 kinase domain, residues 1-327) (Q13546 1-327): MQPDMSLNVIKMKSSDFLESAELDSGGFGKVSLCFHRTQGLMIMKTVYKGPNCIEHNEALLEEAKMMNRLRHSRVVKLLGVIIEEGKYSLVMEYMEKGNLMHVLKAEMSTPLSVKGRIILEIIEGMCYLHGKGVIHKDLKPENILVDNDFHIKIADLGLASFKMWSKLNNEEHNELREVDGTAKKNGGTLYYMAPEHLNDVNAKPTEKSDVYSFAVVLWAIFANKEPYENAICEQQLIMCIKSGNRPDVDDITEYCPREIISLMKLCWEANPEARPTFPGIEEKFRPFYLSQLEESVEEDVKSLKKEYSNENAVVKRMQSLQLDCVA

In the case of `O=C(c1ccco1)N1CCC2(CC1)O[C@@H]1CC[C@@H](c3cc(F)cc(F)c3)N1C2=O` [Example 5.50, (5′S,7a′R)-5′-(3,5-difluoro-phenyl)-1-(furan-2-carbon-yl)tetrahydro-3′H-spiro [piperidine-4,2′-pyrrolo-[2,1-b]oxazol]-3′-one], the EC50 (in general, the concentration giving half of the maximal effect) was less than 25 nM. The same measure for `O=C1N2[C@@H](CC[C@H]2c2ccccc2)OC12CCN(c1nc(-c3ccccn3)cs1)CC2` [Example 11.4, (5′S,7a′R)-5′-phenyl-1-[4-(pyridin-2-yl)-1,3-thiazol-2-yl]tetrahydro-3′H-spiro[piperidine-4,2′-pyrrolo[2,1-b][1,3]oxazol]-3′-one]: 61.1 nM; for `O=C(c1c(Cl)nc2ccccn12)N1CCC2(CC1)O[C@@H]1CC[C@@H](c3cc(F)cc(F)c3)N1C2=O` [Example 6.31, (5′S,7a′R)-1-(2-chloroimidazo[1,2-a]pyridine-3-carbonyl)-5′-(3,5-difluorophen-yl)tetrahydro-3′H-spiro[piperidine-4,2′-pyrrolo[2,1-b][1,3]oxazol]-3′-one]: 36.5 nM.

With `N#CCc1nc(C(=O)N2CCC3(CC2)O[C@@H]2CC[C@@H](c4cc(F)cc(F)c4)N2C3=O)cs1` [Example 6.29, {4-[(5′S,7a′R)-5′-(3,5-difluorophenyl)-3-oxo-tetrahydro-1H,3′H-spiro[piperidine-4,2′-pyrrolo[2,1-b][1,3]oxazole]-1-carbonyl]-1,3-thiazol-2-yl} acetonitrile], the half-maximal effective concentration (EC50) was found to be 413 nM. For the compound `O=C(c1ccccc1)N1CC2(C1)O[C@@H]1CC[C@@H](c3ccccc3F)N1C2=O` [Example 1.19, (5′S,7a′R)-1-benzoyl-5′-(2-fluorophenyl)tetrahydro-3′H-spiro[azetidine-3,2′-pyrrolo[2,1-b]oxazol]-3′-one], the concentration for a half-maximal effect (EC50) was 82.9 nM. Under `O=C1N2[C@@H](CC[C@H]2c2ccccc2)OC12CCN(c1ncc(-c3nccs3)cn1)CC2` [Example 21.12, (5′S,7a′R)-5′-phenyl-1-[5-(1,3-thiazol-2-yl)pyrimidin-2-yl]tetrahydro-3′H-spiro[piperidine-4,2′-pyrrolo[2,1-b][1,3]oxazol]-3′-one] stands 25.2 nM. As for `Cc1nc(N2CCC3(CC2)O[C@@H]2CC[C@@H](c4ccccc4F)N2C3=O)ccc1C#N` [Example 4.105, 6-((5′S,7a′R)-5′-(2-fluorophenyl)-3′-oxotetrahydro-3′H-spiro[piperidine-4,2′-pyrrolo[2,1-b]oxazol]-1-yl)-2-methylnicotinonitrile], the EC50 is less than 25 nM. The same measure for `O=C(c1ccc(N2CCC3(CC2)O[C@@H]2CC[C@@H](c4ccccc4)N2C3=O)nc1)C(F)F` [Example 4.161, (5′S,7a′R)-1-[5-(difluoroacetyl)pyridin-2-yl]-5′-phenyltetrahydro-3′H-spiro[piperidine-4,2′-pyrrolo[2,1-b] [1,3]oxazol]-3′-one]: less than 25 nM; for `O=C1N2[C@@H](CC[C@H]2c2ccccc2F)OC12CN(c1ccnc3ccnn13)C2` [Example 4.108, (5′S,7a′R)-5′-(2-fluorophenyl)-1-(pyrazolo[1,5-a]pyrimidin-7-yl)tetrahydro-3′H-spiro[azetidine-3,2′-pyrrolo[2,1-b]oxazol]-3′-one]: 26.9 nM.
